System: subjects with moderately to severely active RA who have an inadequate response to methotrexate (MTX)
Test: Study 2 (monotherapy) - Subject VAS mean changes (ACR patient assessment)
Format: in vivo, human
Conditions: LOCF, 12 weeks results
Experimental: The scale is 100 mm, the decrease in mm is shown. […] (dotted line), 100 mg q.d. (dashed line) or 200 mg q.d. (dark solid line). The results shown in the figures are calculated using Last-Observation-Carried-Forward (LOCF), which handles missing data by assigning the value recorded at the patient's last visit to all subsequent missed visits.
Randomized, double-blind, placebo-controlled, multicenter, phase IIb dose finding study of Compound 1 (dosed as a [Compound 1:HCl:3H2O]) administered for 24 weeks as monotherapy to subjects with moderately to severely active rheumatoid arthritis who have an inadequate response to methotrexate alone
Double-blind, placebo-controlled, monotherapy study in subjects with moderately to severely active RA who have an inadequate response to methotrexate (MTX) (oral or parenteral).
280 subjects randomized to one of 3 doses of Compound 1 (dosed as a [Compound 1:HCl:3H2O]) or to placebo, given once daily (q.d.).
Twelve weeks of treatment with Compound 1 (dosed as a [Compound 1:HCl:3H2O]) at 50 mg, 100 mg, or 200 mg q.d.; or placebo. At Week 12, all subjects on placebo and the subjects on the 50 mg dose who have not achieved 20% improvement in swollen joint count (SJC66) and tender joint count (TJC68) will be assigned to 100 mg q.d. in a blinded fashion and will continue treatment until Week 24. Subjects in the other groups will maintain their randomized treatment until Week 24.
Firstly, the patient is asked to make a vertical mark on a 100 mm Visual Analog Scale (VAS) corresponding to their general health or global disease activity on a touch screen to measure the VAS value, which is used in the formula below.
The American College of Rheumatology (ACR) composite score, which evaluates clinical improvement relative to an initial assessment, is a commonly accepted efficacy end point for clinical trials in patients with rheumatoid arthritis. The ACR score correspond to a percentage improvement in pre-set parameters, and therefore measures the evolution of the disease in a patient. For example, ACR20 denotes at least 20% improvement in tender and swollen joint counts and in three of the following end points: global assessment by the patient, global assessment by the doctor, C reactive protein (CRP), patient's pain Visual Analogue Scale and Health Assessment Questionnaire Score. The number of swollen joints, ESR and CRP correlate with radiographic progression of joint damage, whereas tender joint counts, as well as global assessments by doctors and patients, and patients' reports of pain, are sensitive to change in clinical outcomes. Physical function, as assessed by the Health Assessment Questionnaire Score, is a potent predictor of the risk of disability in rheumatoid arthritis (Felson and American College of Rheumatology Committee to Reevaluate Improvement Criteria, 2007; Felson et al., 1993).

## O=C(Nc1nc2cccc(-c3ccc(CN4CCS(=O)(=O)CC4)cc3)n2n1)C1CC1 [Compound 1, cyclopropanecarboxylic acid {5-[4-(1,1-dioxo-thiomorpholin-4-ylmethyl)-phenyl]-[1,2,4]triazolo[1,5-a]pyridin-2-yl}-amide]
50 mg q.d., week 0
  Subject VAS mean changes (ACR patient assessment): 0.0%
50 mg q.d., week 1
  Subject VAS mean changes (ACR patient assessment): −12.3%
50 mg q.d., week 2
  Subject VAS mean changes (ACR patient assessment): −17.3%
50 mg q.d., week 4
  Subject VAS mean changes (ACR patient assessment): −19.3%
50 mg q.d., week 8
  Subject VAS mean changes (ACR patient assessment): −23.6%
50 mg q.d., week 12
  Subject VAS mean changes (ACR patient assessment): −27.4%
100 mg q.d., week 0
  Subject VAS mean changes (ACR patient assessment): 0.0%
100 mg q.d., week 1
  Subject VAS mean changes (ACR patient assessment): −12.2%
100 mg q.d., week 2
  Subject VAS mean changes (ACR patient assessment): −17.2%
100 mg q.d., week 4
  Subject VAS mean changes (ACR patient assessment): −21.3%
100 mg q.d., week 8
  Subject VAS mean changes (ACR patient assessment): −29.2%
100 mg q.d., week 12
  Subject VAS mean changes (ACR patient assessment): −29.8%
200 mg q.d., week 0
  Subject VAS mean changes (ACR patient assessment): 0.0%
200 mg q.d., week 1
  Subject VAS mean changes (ACR patient assessment): −14.8%
200 mg q.d., week 2
  Subject VAS mean changes (ACR patient assessment): −19.9%
200 mg q.d., week 4
  Subject VAS mean changes (ACR patient assessment): −25.0%
200 mg q.d., week 8
  Subject VAS mean changes (ACR patient assessment): −30.3%
200 mg q.d., week 12
  Subject VAS mean changes (ACR patient assessment): −28.8%

Source: patent US20180200257A1, “METHODS FOR THE TREATMENT OF INFLAMMATORY DISORDERS” (Galapagos NV, priority 2015, published 2018)
